Test results published in patent publication US12313625B2, “Living tissue model device, vascular wall model, vascular wall model device and method of evaluating test substance” (FUJIFILM CORPORATION, priority 2017, dated 2025).

Key:
[1] = test system: VEC/SMC-HCM insert (HUVEC / HUASMC vascular wall model); settings: histamine 10 μM or 100 μM, incubated 120 minutes, FIG. 10
Experimental: • (1) 2 mg of FITC-dextran 70 (70 kDa, Sigma) was dissolved in 8 ml of HBSS (+) (084-08965, Wako), to prepare a 250 μg/ml FITC-dextran 70 solution. The FITC-dextran 70 solution was stored in a light-shielded condition. […] The 96-well black plate was light-shielded by being covered with an aluminum sheet. • (9) The fluorescent intensity of the FITC in each sample liquid was measured using a plate reader (ENSPIRE, PerkinElmer) with an excitation wavelength (Ex) of 485 nm and an emission wavelength (Em) of 530 nm.

[2] = test system: cell layered body of rat vascular endothelial cells and rat smooth muscle cells on HCM; assay: Evaluation of response to physiologically active substance (thrombin) by microscopy of the cell layered body; format: cell-based; settings: 37° C., 30 minutes
Experimental: • (1) 0.1 mg (100 units) of thrombin (#T7009-100UN, Sigma) was dissolved in 100 μl of physiological saline to prepare a thrombin solution at a concentration of 1000 U/mL. […] The micrograph of the cell layered body is shown in FIG. 12, which is a superposed image of red fluorescence from VE-cadherin and green fluorescence from α-smooth muscle actin.

Compound: NCCc1c[nH]cn1 [histamine, Histamine]
- FITC-dextran 70 permeability [1]: increase in FITC-dextran 70 permeability depending on the concentration of histamine

Compound: thrombin
- cell contraction observed under a microscope ([2]; 25 U/mL or 100 U/mL thrombin, FIG. 12): cell contraction due to activation of actin stress fibers caused by the addition of thrombin was observed
- concentration dependence of cell contraction ([2]; 25 U/mL vs 100 U/mL thrombin): Higher thrombin concentrations caused stronger cell contractions
